From patent US9181305B2, “Exendin-4 peptide analogues” (SANOFI, priority 2012, dated 2015)
*1 amine or outer side, *2 acyl side, *3 side chain or, on linkers, in order; H or OH if unused. Where a SMILES comes first, the peptide text is derived from it. Side-chain parts run from the residue outwards. [ ]: non-standard residue; d: D form. The star is where a group is joined. γGlu = O=C(O)[C@H](CCC(=O)[*:2])N[*:1]; Palmitoyl = CCCCCCCCCCCCCCCC(=O)*

Legend:
[1] = target: T1, human glucagon receptor (hGlucagon R) (Homo sapiens, UniProt P47871); experiment: cAMP response (HTRF) of HEK-293 cells stably expressing human glucagon receptor; type: cell-based; details: read-out: EC50 hGlucagonR
T1 construct: expressed in transfected cells; host or cells: HEK-293
T1 sequence (P47871 26-477): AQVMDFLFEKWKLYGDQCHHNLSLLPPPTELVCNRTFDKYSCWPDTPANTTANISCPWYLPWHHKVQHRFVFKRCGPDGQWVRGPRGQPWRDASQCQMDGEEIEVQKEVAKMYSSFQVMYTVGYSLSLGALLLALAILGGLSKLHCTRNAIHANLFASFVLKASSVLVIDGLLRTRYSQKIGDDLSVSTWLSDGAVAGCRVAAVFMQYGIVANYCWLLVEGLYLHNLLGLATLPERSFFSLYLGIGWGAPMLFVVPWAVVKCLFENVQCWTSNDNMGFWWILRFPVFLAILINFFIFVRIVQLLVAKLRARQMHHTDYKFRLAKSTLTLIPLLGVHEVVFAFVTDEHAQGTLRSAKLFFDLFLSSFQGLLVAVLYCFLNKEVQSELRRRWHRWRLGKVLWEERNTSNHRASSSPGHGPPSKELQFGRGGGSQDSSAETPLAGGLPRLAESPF
Protocol: cAMP content of cells was determined using a kit from Cisbio Corp. (cat. no. 62AM4PEC) based on HTRF (Homogenous Time Resolved Fluorescence). For preparation, cells were split into T175 culture flasks and grown overnight to near confluency in medium (DMEM/10% FBS). Medium was then removed and cells washed with PBS lacking calcium and magnesium, followed by proteinase treatment with accutase (Sigma-Aldrich cat. no. A6964). Detached cells were washed and resuspended in assay buffer (1×HBSS; 20 mM HEPES, 0.1% BSA, 2 mM IBMX) and cellular density determined. […] For measurement, 25 μl of test compound in assay buffer was added to the wells, followed by incubation for 30 minutes at room temperature.

[2] = target: T2, human GLP-1 receptor (hGLP-1 R) (Homo sapiens, UniProt P43220); experiment: cAMP response (HTRF) of HEK-293 cells stably expressing human GLP-1 receptor; type: cell-based; details: HEK-293 cells expressing human GLP-1 receptor, cAMP formation
T2 construct: expressed in transfected cells; host or cells: HEK-293
T2 sequence (P43220 24-463): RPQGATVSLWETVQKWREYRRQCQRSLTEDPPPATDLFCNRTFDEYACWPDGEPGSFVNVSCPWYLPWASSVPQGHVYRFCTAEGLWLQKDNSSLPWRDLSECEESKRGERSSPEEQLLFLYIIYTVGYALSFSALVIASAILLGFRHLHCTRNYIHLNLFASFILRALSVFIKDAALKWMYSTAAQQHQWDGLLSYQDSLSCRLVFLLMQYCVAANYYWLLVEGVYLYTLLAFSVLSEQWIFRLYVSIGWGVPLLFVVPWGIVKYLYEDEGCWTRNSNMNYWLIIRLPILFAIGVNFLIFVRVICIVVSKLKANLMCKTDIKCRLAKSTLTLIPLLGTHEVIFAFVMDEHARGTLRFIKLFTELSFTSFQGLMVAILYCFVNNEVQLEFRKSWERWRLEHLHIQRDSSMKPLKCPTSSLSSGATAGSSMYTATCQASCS
Procedure, shortened: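 Detached HEK-293 cells stably expressing the receptor were suspended in HBSS with 20 mM HEPES, 0.1% BSA and 2 mM IBMX. Test compound was added for 30 min at room temperature, and cellular cAMP was quantified by HTRF.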

physchem = type: physicochemical
Protocol: Prior to the testing of solubility and stability of a peptide batch, its content was determined. Therefore, two parameters were investigated, its purity (HPLC-UV) and the amount of salt load of the batch (ion chromatography). Since synthesized peptides contain primarily trifluoracetate anions, only anion chromatography was performed. The content was then calculated based on the assumption that peptide-related impurities are detected at the same UV-absorption rate as the target peptide, as well as that cations are not present in the sample.
Therefore, solutions from solid samples were prepared in different buffer systems with a concentration of 1.0 mg/mL compound based on the previously determined content. HPLC-UV was performed after 2 h of gentle agitation from the supernatant, which was obtained by 20 min of centrifugation at 4000 rpm. […] This analysis also served as t0 for the stability testing.
Instrument: Agilent 1100, column: X-Bridge C18 3.5 μm 2.1×150 mm (Waters), eluent: A: H20+500 ppm TFA/B: Methanol, flow: 0.55 ml/min, gradient: 0-5 min: 10-60% B; 5-15 min: 60-99% B; detection: 214 nm.

Row | Structure (SMILES) | EC50 [1] | EC50 [2] | solubility at 2 h (physchem; pH 4.5) | solubility at 2 h (physchem; pH 7.4)
1 | CC[C@H](C)[C@H](NC(=O)[C@H](Cc1ccccc1)NC(=O)[C@H](CC(=O)O)NC(=O)[C@H](CCC(N)=O)NC(=O)[C@H](C)NC(=O)[C@H](CCCNC(=N)N)NC(=O)[C@H](CCCNC(=N)N)NC(=O)[C@H](CCC(=O)O)NC(=O)[C@H](CC(=O)O)NC(=O)[C@H](CCSC)NC(=O)[C@H](CCC(N)=O)NC(=O)[C@H](CCCCN)NC(=O)[C@H](CO)NC(=O)[C@H](CC(C)C)NC(=O)[C@H](CC(=O)O)NC(=O)[C@H](CO)NC(=O)[C@@H](NC(=O)[C@H](Cc1ccccc1)NC(=O)[C@@H](NC(=O)CNC(=O)[C@H](CCC(N)=O)NC(=O)[C@H](CO)NC(=O)[C@@H](N)Cc1c[nH]cn1)[C@@H](C)O)[C@@H](C)O)C(=O)N[C@@H](CCC(=O)O)C(=O)N[C@@H](Cc1c[nH]c2ccccc12)C(=O)N[C@@H](CC(C)C)C(=O)N[C@@H](CCCCN)C(=O)N[C@@H](CC(N)=O)C(=O)NCC(=O)NCC(=O)N1CCC[C@H]1C(=O)N[C@@H](CO)C(=O)N[C@@H](CO)C(=O)NCC(=O)N[C@@H](C)C(=O)N1CCC[C@H]1C(=O)N1CCC[C@H]1C(=O)N1CCC[C@H]1C(=O)N[C@@H](CO)C(N)=O [(5)] (H-HSQGTFTSDLSKQMDERRAQDFIEWLKNGGPSSGAPPPS-NH2) | 0.067 nM | – | – | –
2 | CCCCCCCCCCCCCCCC(=O)N[C@@H](CCC(=O)NCCCC[C@H](NC(=O)[C@H](CO)NC(=O)[C@@H]1CCCN1C(=O)[C@@H]1CCCN1C(=O)[C@@H]1CCCN1C(=O)[C@H](C)NC(=O)CNC(=O)[C@H](CO)NC(=O)[C@H](CO)NC(=O)[C@@H]1CCCN1C(=O)CNC(=O)[C@H](C)NC(=O)[C@H](CC(N)=O)NC(=O)[C@H](CCCCN)NC(=O)[C@H](CC(C)C)NC(=O)[C@H](Cc1c[nH]c2ccccc12)NC(=O)[C@H](CCC(=O)O)NC(=O)[C@@H](NC(=O)[C@H](Cc1ccccc1)NC(=O)[C@H](CC(=O)O)NC(=O)[C@H](CCC(N)=O)NC(=O)[C@H](C)NC(=O)[C@H](CCCNC(=N)N)NC(=O)[C@H](CCCNC(=N)N)NC(=O)[C@H](CO)NC(=O)[C@H](CCC(=O)O)NC(=O)[C@H](CCSC)NC(=O)[C@H](CCC(N)=O)NC(=O)[C@H](CCCCN)NC(=O)[C@H](CO)NC(=O)[C@H](CC(C)C)NC(=O)[C@H](CC(=O)O)NC(=O)[C@H](CO)NC(=O)[C@@H](NC(=O)[C@H](Cc1ccccc1)NC(=O)[C@@H](NC(=O)CNC(=O)[C@H](CCC(N)=O)NC(=O)[C@@H](CO)NC(=O)[C@@H](N)Cc1c[nH]cn1)[C@@H](C)O)[C@@H](C)O)[C@@H](C)CC)C(N)=O)C(=O)O [(64)] (H-H[dS]QGTFTSDLSKQMESRRAQDFIEWLKNAGPSSGAPPPSK([γGlu-Palmitoyl])-NH2) | 0.067 nM | – | – | –
3 | CCCCCCCCCCCCCCCC(=O)N[C@@H](CCC(=O)NCCCC[C@H](NC(=O)[C@H](CO)NC(=O)[C@@H]1CCCN1C(=O)[C@@H]1CCCN1C(=O)[C@@H]1CCCN1C(=O)[C@H](C)NC(=O)CNC(=O)[C@H](CO)NC(=O)[C@H](CO)NC(=O)[C@@H]1CCCN1C(=O)CNC(=O)[C@@H](NC(=O)[C@H](CC(N)=O)NC(=O)[C@H](CCCCN)NC(=O)[C@H](CC(C)C)NC(=O)[C@H](Cc1c[nH]c2ccccc12)NC(=O)[C@H](CCC(=O)O)NC(=O)[C@@H](NC(=O)[C@H](Cc1ccccc1)NC(=O)[C@H](CC(=O)O)NC(=O)[C@H](CCC(N)=O)NC(=O)[C@H](C)NC(=O)[C@H](CCCNC(=N)N)NC(=O)[C@H](CCCNC(=N)N)NC(=O)[C@H](CO)NC(=O)[C@H](CC(=O)O)NC(=O)[C@H](CCSC)NC(=O)[C@H](CCC(N)=O)NC(=O)[C@H](CCCCN)NC(=O)[C@H](CO)NC(=O)[C@H](CC(C)C)NC(=O)[C@H](CC(=O)O)NC(=O)[C@H](CO)NC(=O)[C@@H](NC(=O)[C@H](Cc1ccccc1)NC(=O)[C@@H](NC(=O)CNC(=O)[C@H](CCC(N)=O)NC(=O)[C@@H](CO)NC(=O)[C@@H](N)Cc1c[nH]cn1)[C@@H](C)O)[C@@H](C)O)[C@@H](C)CC)[C@@H](C)O)C(N)=O)C(=O)O [(71)] | 0.0019 nM | – | – | –
4 | CCCCCCCCCCCCCCCC(=O)N[C@@H](CCC(=O)NCCCC[C@H](NC(=O)[C@H](CO)NC(=O)[C@@H]1CCCN1C(=O)[C@@H]1CCCN1C(=O)[C@@H]1CCCN1C(=O)[C@H](C)NC(=O)CNC(=O)[C@H](CO)NC(=O)[C@H](CO)NC(=O)[C@@H]1CCCN1C(=O)CNC(=O)CNC(=O)[C@H](CCCNC(=N)N)NC(=O)[C@H](CCCCN)NC(=O)[C@H](CC(C)C)NC(=O)[C@H](Cc1c[nH]c2ccccc12)NC(=O)[C@H](CCC(=O)O)NC(=O)[C@@H](NC(=O)[C@H](Cc1ccccc1)NC(=O)[C@H](CC(=O)O)NC(=O)[C@H](CCC(N)=O)NC(=O)[C@H](C)NC(=O)[C@H](CCCNC(=N)N)NC(=O)[C@H](CCCNC(=N)N)NC(=O)[C@H](CO)NC(=O)[C@H](CCC(=O)O)NC(=O)[C@H](CCSC)NC(=O)[C@H](CCC(N)=O)NC(=O)[C@H](CCCCN)NC(=O)[C@H](CO)NC(=O)[C@H](CC(C)C)NC(=O)[C@H](CC(=O)O)NC(=O)[C@H](CO)NC(=O)[C@@H](NC(=O)[C@H](Cc1ccccc1)NC(=O)[C@@H](NC(=O)CNC(=O)[C@H](CCC(N)=O)NC(=O)[C@@H](CO)NC(=O)[C@@H](N)Cc1c[nH]cn1)[C@@H](C)O)[C@@H](C)O)[C@@H](C)CC)C(N)=O)C(=O)O [(75)] (H-H[dS]QGTFTSDLSKQMESRRAQDFIEWLKRGGPSSGAPPPSK([γGlu-Palmitoyl])-NH2) | – | 4.6 pM | > 1000 µg/mL | > 1000 µg/mL
5 | CCCCCCCCCCCCCCCC(=O)N[C@@H](CCC(=O)NCCCC[C@H](NC(=O)[C@H](CO)NC(=O)[C@@H]1CCCN1C(=O)[C@@H]1CCCN1C(=O)[C@@H]1CCCN1C(=O)[C@H](C)NC(=O)CNC(=O)[C@H](CO)NC(=O)[C@H](CO)NC(=O)[C@@H]1CCCN1C(=O)CNC(=O)CNC(=O)[C@H](CCCCN)NC(=O)[C@H](CCCCN)NC(=O)[C@H](CC(C)C)NC(=O)[C@H](Cc1c[nH]c2ccccc12)NC(=O)[C@H](CCC(=O)O)NC(=O)[C@@H](NC(=O)[C@H](Cc1ccccc1)NC(=O)[C@H](CC(=O)O)NC(=O)[C@H](CCC(N)=O)NC(=O)[C@H](C)NC(=O)[C@H](CCCNC(=N)N)NC(=O)[C@H](CCCNC(=N)N)NC(=O)[C@H](CO)NC(=O)[C@H](CCC(=O)O)NC(=O)[C@H](CCSC)NC(=O)[C@H](CCC(N)=O)NC(=O)[C@H](CCCCN)NC(=O)[C@H](CO)NC(=O)[C@H](CC(C)C)NC(=O)[C@H](CC(=O)O)NC(=O)[C@H](CO)NC(=O)[C@@H](NC(=O)[C@H](Cc1ccccc1)NC(=O)[C@@H](NC(=O)CNC(=O)[C@H](CCC(N)=O)NC(=O)[C@@H](CO)NC(=O)[C@@H](N)Cc1c[nH]cn1)[C@@H](C)O)[C@@H](C)O)[C@@H](C)CC)C(N)=O)C(=O)O [(77)] (H-H[dS]QGTFTSDLSKQMESRRAQDFIEWLKKGGPSSGAPPPSK([γGlu-Palmitoyl])-NH2) | – | – | > 1000 µg/mL | > 1000 µg/mL
6 | CCCCCCCCCCCCCCCC(=O)N[C@@H](CCC(=O)NCCCC[C@H](NC(=O)[C@H](CO)NC(=O)[C@@H]1CCCN1C(=O)[C@@H]1CCCN1C(=O)[C@@H]1CCCN1C(=O)[C@H](C)NC(=O)CNC(=O)[C@H](CO)NC(=O)[C@H](CO)NC(=O)[C@@H]1CCCN1C(=O)CNC(=O)CNC(=O)[C@H](CO)NC(=O)[C@H](CCCCN)NC(=O)[C@H](CC(C)C)NC(=O)[C@H](Cc1c[nH]c2ccccc12)NC(=O)[C@H](CCC(=O)O)NC(=O)[C@@H](NC(=O)[C@H](Cc1ccccc1)NC(=O)[C@H](CC(=O)O)NC(=O)[C@H](CCC(N)=O)NC(=O)[C@H](C)NC(=O)[C@H](CCCNC(=N)N)NC(=O)[C@H](CCCNC(=N)N)NC(=O)[C@H](CO)NC(=O)[C@H](CCC(=O)O)NC(=O)[C@H](CCSC)NC(=O)[C@H](CCC(N)=O)NC(=O)[C@H](CCCCN)NC(=O)[C@H](CO)NC(=O)[C@H](CC(C)C)NC(=O)[C@H](CC(=O)O)NC(=O)[C@H](CO)NC(=O)[C@@H](NC(=O)[C@H](Cc1ccccc1)NC(=O)[C@@H](NC(=O)CNC(=O)[C@H](CCC(N)=O)NC(=O)[C@@H](CO)NC(=O)[C@@H](N)Cc1c[nH]cn1)[C@@H](C)O)[C@@H](C)O)[C@@H](C)CC)C(N)=O)C(=O)O [(78)] (H-H[dS]QGTFTSDLSKQMESRRAQDFIEWLKSGGPSSGAPPPSK([γGlu-Palmitoyl])-NH2) | – | 4.2 pM | > 1000 µg/mL | > 1000 µg/mL
